From US20240317734A1, “BI-FUNCTIONAL COMPOUNDS AND METHODS FOR TARGETED UBIQUITINATION OF ANDROGEN RECEPTOR” (MONTELINO THERAPEUTICS, INC., priority 2021, published 2024)

System: 22Rv1-Enz^R
Assay: 22Rv1-Enz^R cell proliferation assay
Format: cell-based
Details: human prostate cancer cell line 22Rv1-Enz^R; 6-day culture, cell media changed every 24 hours; half maximal growth inhibition constant; read-out: 22Rv1-Enz^R proliferation assay GIC50
Description: The human prostate cancer cell line, 22Rv1 has been reported to express a high level of AR-V7. According to one procedure, 22Rv1 is seeded at 50,000 cells/well on a 24-well plate in quadruplicate and treated with test compounds in concentrations ranging up to 20 μM for four days. Standard culture media is RPMI-1640 supplemented with 10% fetal bovine serum. The test compound initially is dissolved in DMSO at 50 mM. This stock solution is then diluted as needed for the indicated concentrations. At the end of the four-day period, cells are harvested using 1% trypsin and counted using an automated cell counter.
Cell Culture. Human CaP cell lines, LNCaP, 22Rv1, VCaP, PC3, and DU145 are obtained from the American Type Culture Collection (ATCC) and maintained in the standard culture media: RPMI-1640 supplemented with 10% fetal bovine serum (FBS). LNCaP, 22Rv1, and VCaP are androgen-responsive cell lines, while PC3 and DU145 are not. To establish SAT resistant CaP cell lines, LNCaP, 22Rv1, and VCaP are treated continuously with 10-50 μM abiraterone, apalutamide, darolutamide, or enzalutamide. After 3-6 months, stable cell lines are established and designated as LNCaP-Abi^R, LNCaP-Apa^R, LNCap-Daro^R, LNcaP-Enz^R, VcaP-Abi^R, VCaP-Apa^R, VCaP-Daro^R, VCaP-Enz^R, 22Rv1-Abi^R, 22Rv1-Apa^R, 22Rv1-Daro^R, and 22Rv1-Enz^R. Unless otherwise specified, the standard culture media for these SAT-resistant cell lines included 10 μM of their respective SAT. For the proteasome inhibitor study, the inhibitors MG132 and Epoxomicin are used. The E3 ligase inhibitors Heclin, Nutlin 3a, Thalidomide, and VH298 are used. Cell lines obtained from ATCC are confirmed by checking their morphology using optical microscopy, establishing baselines for cell proliferation, verifying species of origin using isoenzymology, and characterizing the cell's DNA fingerprint using short tandem repeat (STR) profiling. Mycoplasma contamination is also assessed using a PCR based detection system.
Selected compounds may be tested in the human prostate cancer cell line, 22Rv1-Enz^R, as described in Geun Tack Lee et al., Molecular Cancer Therapeutics, 20:490-9 (2021). These procedures are similar to that described in Experimental Example 1, above, except that the assay conditions are a 6-day culture with cell media changed every 24 hours.

Row | IC50 [µM] | SMILES
1 | < 10 | O=C(COc1c(-c2csc(N3CCOCC3)n2)ccc(F)c1F)NCCCCCCCCCCNc1ccc2nnn(C3CCC(=O)NC3=O)c(=O)c2c1 (stereo not shown) [Example 4, 2-(2,3-difluoro-6-(2-morpholinothiazol-4-yl)phenoxy)-N-(10-((3-(2,6-dioxopiperidin-3-yl)-4-oxo-3,4-dihydrobenzo[d][1,2,3]triazin-6-yl)amino)decyl)acetamide]
2 | < 100 | O=C(COc1c(-c2csc(N3CCOCC3)n2)ccc(F)c1F)NCCCCNc1ccc2nnn(C3CCC(=O)NC3=O)c(=O)c2c1 (stereo not shown) [Example 1, 2-(2,3-difluoro-6-(2-morpholinothiazol-4-yl)phenoxy)-N-(4-((3-(2,6-dioxopiperidin-3-yl)-4-oxo-3,4-dihydrobenzo[d][1,2,3]triazin-6-yl)amino)butyl)acetamide]
3 | < 100 | O=C1CCC(n2nnc3ccc(NCCOCCOCCOc4c(-c5csc(N6CCOCC6)n5)ccc(F)c4F)cc3c2=O)C(=O)N1 (stereo not shown) [Example 3, 3-(6-((2-(2-(2-(2,3-difluoro-6-(2-morpholinothiazol-4-yl)phenoxy)ethoxy)ethoxy)ethyl)amino)-4-oxobenzo[d][1,2,3]triazin-3(4H)-yl)piperidine-2,6-dione]
4 | < 10 | O=C(COc1c(-c2csc(N3CCOCC3)n2)ccc(F)c1F)NCCCCCCNc1ccc2nnn(C3CCC(=O)NC3=O)c(=O)c2c1 (stereo not shown) [Example 2, 2-(2,3-difluoro-6-(2-morpholinothiazol-4-yl)phenoxy)-N-(6-((3-(2,6-dioxopiperidin-3-yl)-4-oxo-3,4-dihydrobenzo[d][1,2,3]triazin-6-yl)amino)hexyl)acetamide]
